Patent US7598223B2, “Methods for producing target cell reactive lymphocytes” (The Board of Trustees of the Leland Stanford Junior …, priority 2004, dated 2009)

Experiments:
T2 cells [1] = test: Micro-cytotoxicity 51Cr-release assay with tetramer+/CD8+ cells sorted from PBMC of patient 422; type: cell-based, human; details: patient 422 G209-2M tetramer+ cells; peptide 1 μg/ml; 4 hours
Description: Six patients with T cell responses specific for MART-1 or gp100 were selected for analysis. PBMC from each patient were stained with PE-conjugated peptide-MHC tetramers: G209-2M-tet PE or M26-tet PE, and co-stained with anti-CD8 FITC and anti-CD14, -CD19, and -CD4 Cy5PE. The plots shown are gated for CD14-, CD19-, and CD4-cells. Tetramer+/CD8+ cells are boxed. […] Micro-cytotoxicity ^51Cr-release assay with tetramer+/CD8+ cells isolated by FACS from the PBMC from patient 422. Isolated cells were assayed for lysis of T2 cells treated with relevant (G209-2M, G209n) or irrelevant (CMV) peptide, or mel 526 melanoma cells. Sorted cells were combined with 250 target cells at 13:1 E:T ratios for 4 hours and supernatants were assayed for percent specific release of radio-label.
Microcytotoxic assay: Cells were isolated directly from PBMC from patient 422 by FACS as described above. Cells were collected in microfuge tubes containing 1 ml ice cold 90% IMDM, with 10% FBS. Collected cells were washed and resuspended to 83,300 cells/ml in 90% IMDM, with 10% FBS. Targets were prepared as described above and resuspended to 8,300 cells/ml in 90% IMDM, with 10% FBS. […] Percent specific release of ^51Cr was calculated from 40 μl cell-free supernatant.

T2 cells [2] = test: Determination of recognition efficiency (RE): 51Cr-release lysis of peptide-pulsed T2 targets by CTL clones; type: cell-based, human; details: for RE score (negative log10 of the peptide concentration required for 40% specific lysis): peptide-pulsed T2 cells, E:T ratio 10:1; for Mean RE (weighted): target cells pulsed with native peptide
Method: FIGS. 3A-3J. […] All assays were performed in triplicate and each clone was assayed twice. Error bars reflect variation between two separate assays. 3a.-c. CTL clones 476.105 and 132.1 were assayed for lysis of T2 cells pulsed with 10-fold dilutions of a. native or c. heteroclitc peptide at concentrations ranging from 100 fg/ml to 100 ng/ml. b. CTL clones 476.105 and 132.1 were assayed for lysis of Malme-3M melanoma cells. d.-e. […] Endogenous (461 and 132) and vaccine-induced (517, 520, 422 and 476) CTL clones were compared for RE in lysing target cells. f-g. […] Mean RE (weighted) for each response is indicated with horizontal bars. Weighted means were based on all clones, not only those assayed, and were estimated by summing the RE of each analyzed clone multiplied by the number of total clones expressing the same V-beta in each patient.
2. […] The E:T ratio was based upon live T and target cells. For each T cell clone, % cytotoxicity was plotted against peptide concentration. The peptide concentration at which the curve crosses 40% cytotoxicity was defined as the RE of that clone (Marguiles, Nat. Immunol. (2001) 2:669-670.
Similar RE assays were performed for the remaining clones from each patient selected for analysis. In order to compare REs of various CTL lines, each clone was assigned an RE score expressed as the negative log10 value of the peptide concentration required for 40% percent specific lysis at an E:T ratio of 10:1. […] We estimated the composite RE of the overall TAA-specific response (composed of a heterogeneous population of T cells) in vivo by summing the RE of each clone multiplied by its representation in the original mixture (the representation was estimated based on the proportion of TAA-specific cells expressing the same V-beta as the clone).

[3] = biological target: tetramer+ CD8+ T cells of patient 476 (their T cell receptors); test: flow cytometry, tetramer staining of patient PBMC
[4] = biological target: tetramer+ CD8+ T cells of patient 422 (their T cell receptors); test: flow cytometry, tetramer staining of patient PBMC
[5] = biological target: tetramer+ CD8+ T cells of patient 132 (their T cell receptors); test: flow cytometry, tetramer staining of patient PBMC
[6] = biological target: tetramer+ CD8+ T cells of patient 517 (their T cell receptors); test: flow cytometry, tetramer staining of patient PBMC
[7] = biological target: tetramer+ CD8+ T cells of patient 461 (their T cell receptors); test: flow cytometry, tetramer staining of patient PBMC

Substance: IMDQVPSFV (SEQ ID NO:4) [G209-2M, heteroclitic peptide vaccine gp100 209-217 (210M), reference compound]
- Lysis of peptide-pulsed T2 cells by directly isolated tetramer+ T cells (T2 cells [1]): specifically lysed
- RE score (negative log10 of the peptide concentration required for 40% specific lysis) (T2 cells [2]; CTL clone 132.1): 11.2
- RE score (negative log10 of the peptide concentration required for 40% specific lysis) (T2 cells [2]; CTL clone 476.105): 11.2

Substance: HLA-A*0201/G209-2M peptide tetramer-phycoerythrin (from UniProt P61769 21-119) (peptide-MHC)
- estimated percentage of total CD8+ cells that are also tetramer+/CD8+ [3]: 0.31%
- estimated percentage of total CD8+ cells that are also tetramer+/CD8+ [4]: 2.5%
- estimated percentage of total CD8+ cells that are also tetramer+/CD8+ [5]: 0.22%

Substance: HLA-A*0201/M26 peptide tetramer-phycoerythrin (from UniProt P61769 21-119) (peptide-MHC)
- estimated percentage of total CD8+ cells that are also tetramer+/CD8+ [6]: 0.23%
- estimated percentage of total CD8+ cells that are also tetramer+/CD8+ [7]: 0.5%

Substance: ITAQVPSFV (SEQ ID NO:2) [G209-3A]
- Activation of G209-specific target cell lysis by T cell clones (T2 cells [2]; any concentrations, data not shown): does not activate

Substance: ITDQVPSFV (SEQ ID NO:1) (syArtificial Sequence) [G209n, native G209n peptide; agonist]
- Lysis of peptide-pulsed T2 cells by directly isolated tetramer+ T cells (T2 cells [1]): specifically lysed
- RE score (negative log10 of the peptide concentration required for 40% specific lysis) (T2 cells [2]; CTL clone 132.1): 11.1
- RE score (negative log10 of the peptide concentration required for 40% specific lysis) (T2 cells [2]; CTL clone 476.105): 8.3
- Mean RE (weighted) (T2 cells [2]; CTL clones of patient 132 (endogenous)): 11.2
- Mean RE (weighted) (T2 cells [2]; CTL clones of patient 422 (vaccine-induced)): 9.7
- Mean RE (weighted) (T2 cells [2]; CTL clones of patient 476 (vaccine-induced)): 9.9
